In general, IC50 refers to the concentration that inhibits the measured activity by half.

Where a name gives a salt, the structure may show the parent alone.

T1 sequence (P26663 2420-3010): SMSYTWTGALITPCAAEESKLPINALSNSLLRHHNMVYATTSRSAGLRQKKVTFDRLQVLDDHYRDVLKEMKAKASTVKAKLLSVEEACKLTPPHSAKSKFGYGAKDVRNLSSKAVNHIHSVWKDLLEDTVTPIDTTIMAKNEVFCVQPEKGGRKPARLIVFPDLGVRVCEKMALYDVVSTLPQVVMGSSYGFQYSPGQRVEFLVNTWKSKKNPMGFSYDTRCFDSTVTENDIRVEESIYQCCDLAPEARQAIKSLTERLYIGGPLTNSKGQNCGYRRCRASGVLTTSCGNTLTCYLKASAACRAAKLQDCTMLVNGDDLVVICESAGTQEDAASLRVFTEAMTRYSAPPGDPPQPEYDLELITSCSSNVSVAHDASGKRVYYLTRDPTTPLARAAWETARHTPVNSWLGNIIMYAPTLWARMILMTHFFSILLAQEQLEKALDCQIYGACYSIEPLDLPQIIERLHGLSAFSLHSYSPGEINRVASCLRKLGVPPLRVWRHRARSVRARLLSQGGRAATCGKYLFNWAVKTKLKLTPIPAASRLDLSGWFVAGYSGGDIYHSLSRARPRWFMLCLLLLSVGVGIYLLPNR

The first experiment addresses T1, HCV polymerase (Hepatitis C virus genotype 1b, UniProt P26663).
T1 construct: a region encoding NS5B (591 amino acids; J Virol 1991 Mar, 65(3), 1105-13) was amplified by PCR; 6 His (N); made in house; host or cells: Escherichia coli
Kind of experiment: biochemical. As to conditions: HCV polymerase inhibitory activity IC50.
With `CN(C)C(=O)c1ccc(-c2ccc(Cl)cc2)c(COc2ccc(-c3nc4cc(C(=O)O)ccc4n3C3CCCCC3)cc2)c1` [Example 265, 2-{4-[2-(4-chlorophenyl)-5-dimethylcarbamoylbenzyloxy]phenyl}-1-cyclohexylbenzimidazole-5-carboxylic acid hydrochloride], 14 nM corresponded to half-maximal inhibition (IC50).

Staying with this experiment, now noted: read-out: HCV polymerase inhibitory activity IC50.
In the case of `CN(C)C(=O)c1ccc(-c2ccc(C(F)(F)F)cc2)c(COc2ccc(-c3nc4cc(C(=O)O)ccc4n3C3CCCCC3)cc2)c1` [Example 266, 1-cyclohexyl-2-{4-[3-dimethylcarbamoyl-6-(4-trifluoromethylphenyl)benzyloxy]phenyl}benzimidazole-5-carboxylic acid hydrochloride], the IC50 is 18 nM. Take `CSc1ccc(-c2ccc(C(=O)N(C)C)cc2COc2ccc(-c3nc4cc(C(=O)O)ccc4n3C3CCCCC3)cc2)cc1` [Example 267, 1-cyclohexyl-2-{4-[3-dimethylcarbamoyl-6-(4-methylthiophenyl)-benzyloxy]phenyl}benzimidazole-5-carboxylic acid hydrochloride]: the IC50 is 14 nM. Same read-out and setting: for `CN(C)C(=O)c1ccc(-c2ccc(Cl)cc2)c(COc2ccc(-c3nc4cc(C(=O)O)ccc4n3C3CCCCC3)c(F)c2)c1` [Example 269, 2-{4-[2-(4-chlorophenyl)-5-dimethylcarbamoylbenzyloxy]-2-fluorophenyl}-1-cyclohexylbenzimidazole-5-carboxylic acid hydrochloride] the value was 13 nM.

Take `NC(=O)c1ccc(-c2ccc(Cl)cc2)c(COc2ccc(-c3nc4cc(C(=O)O)ccc4n3C3CCCCC3)c(F)c2)c1` [Example 270, 2-{4-[3-carbamoyl-6-(4-chlorophenyl)benzyloxy]-2-fluorophenyl}-1cyclohexylbenzimidazole-5-carboxylic acid hydrochloride]: the IC50 was 12 nM. Same read-out and setting: for `CN(C)C(=O)c1ccc(-c2ccc(S(C)(=O)=O)cc2)c(COc2ccc(-c3nc4cc(C(=O)O)ccc4n3C3CCCCC3)cc2)c1` [Example 271, 2-{4-[3-dimethylcarbamoyl-6-(4-methanesulfonylphenyl)benzyloxy]-phenyl}-1-cyclohexylbenzimidazole-5-carboxylic acid hydrochloride] the value was 24 nM. `CN(C)C(=O)c1ccc(-c2cccnc2)c(COc2ccc(-c3nc4cc(C(=O)O)ccc4n3C3CCCCC3)cc2)c1` [Example 272, 2-{4-[3-dimethylcarbamoyl-6-(3-pyridyl)benzyloxy]phenyl}-1-cyclohexylbenzimidazole-5-carboxylic acid dihydrochloride]: the IC50 came to 66 nM.

As to `CN(C)C(=O)c1ccc(-c2ccc(C(=O)N(C)C)cc2COc2ccc(-c3nc4cc(C(=O)O)ccc4n3C3CCCCC3)cc2)cc1` [Example 273, 2-{4-[3-dimethylcarbamoyl-6-(4-dimethylcarbamoylphenyl)-benzyloxy]phenyl}-1-cyclohexylbenzimidazole-5-carboxylic acid], the IC50 worked out at 41 nM. Consider `COc1ccc(-c2ccc(Cl)cc2)c(COc2ccc(-c3nc4cc(C(=O)O)ccc4n3C3CCSCC3)c(F)c2)c1` [Example 276, 2-{4-[2-(4-chlorophenyl)-5-methoxybenzyloxy]-2-fluorophenyl}-1-(4-tetrahydrothiopyranyl)benzimidazole-5-carboxylic acid], for which the IC50 is 23 nM. Regarding `CN(C)S(=O)(=O)c1ccc(-c2ccc(Cl)cc2)c(COc2ccc(-c3nc4cc(C(=O)O)ccc4n3C3CCCCC3)cc2)c1` [Example 279, 2-{4-[2-(4-chlorophenyl)-5-dimethylsulfamoylbenzyloxy]phenyl}-1-cyclohexylbenzimidazole-5-carboxylic acid hydrochloride], the IC50 was determined as 17 nM. The same measure, in the same setting: for `CS(=O)(=O)c1ccc(-c2ccc(Cl)cc2)c(COc2ccc(-c3nc4cc(C(=O)O)ccc4n3C3CCCCC3)cc2)c1` [Example 280, 2-{4-[2-(4-chlorophenyl)-5-methanesulfonylbenzyloxy]phenyl}-1-cyclohexylbenzimidazole-5-carboxylic acid] the value was 16 nM.

The values above are taken from patent US20040082635A1, “Fused cyclic compounds and medicinal use thereof” (priority 2001, published 2004).
